Laboratory results published in article PMC10222323, “Novel Biotinylated Cu(II)-Phenanthroline Complexes: 2D and 3D Cytotoxic Activity and Mechanistic Insight” (Molecules, 2023).
Like-named read-outs stand apart in the source and are kept apart here.

Experiments:
[1] = tested on: A431 (cervical) cancer cells; test: MTT cytotoxicity test, 72 h, A431; type: cell-based, human
Description: (§1) The in vitro anticancer potential of the newly developed complexes and of the ligands has been tested on six different cancer cell lines including PSN-1 (pancreatic), HCT-15 (colorectal with low sensitivity for cisplatin), 2008 (ovarian), A431 (cervical), MDA-MB-231 (breast), and U1285 (lung) cancer cells. For comparison purposes, cisplatin efficacy was assessed under the same experimental conditions.
(§2) Tested compounds were dissolved in DMSO and added to the cell-growth medium to a final solvent concentration of 0.5%, which is well reported to not have cytotoxic effects on cell viability. Cisplatin (Sigma Chemical Co., St. Louis, MO, USA) was dissolved in a physiologic solution (0.9% sodium chloride).
(§3) Human colon (HCT-15), pancreatic (PSN-1), and breast (MDA-MB-231) carcinoma-cell lines were obtained from the American Type Culture Collection (ATCC, Rockville, MD). Human cervical carcinoma (A431) cells were kindly provided by Prof. F. Zunino (Division of Experimental Oncology B, Istituto Nazionale dei Tumori, Milan). Human ovarian carcinoma (2008) cells and their cisplatin-resistant counterpart (C13*) were kindly provided by Prof. G. Marverti (Dipartimento di Scienze Biomediche, Università di Modena University, Italy). Cell lines were cultured in RPMI-1640 or DMEM medium (Euroclone) added with 10% fetal calf serum (Euroclone, Milan, Italy), antibiotics (50 units per mL penicillin, and 50 μg mL^−1 streptomycin), and 2 mM L-glutamine.
(§4) The growth inhibitory effect toward the tumour cell lines was evaluated by the MTT test as previously described.

[2] = tested on: HCT-15 (colorectal with low sensitivity for cisplatin) cancer cells; test: MTT cytotoxicity test, 72 h, HCT-15; type: cell-based, human
Description: as §1, §2, §3, §4

[3] = tested on: PSN-1 (pancreatic) cancer cells; test: MTT cytotoxicity test, 72 h, PSN-1; type: cell-based, human
Description: as §1, §2, §3, §4

[4] = tested on: U1285 (lung) cancer cells; test: MTT cytotoxicity test, 72 h, U1285; type: cell-based, human; conditions: mean ± S.D., read-out: IC50 U-1285
Description: as §1, §2, §4

[5] = tested on: 2008 (ovarian) cancer cells; test: MTT cytotoxicity test, 72 h, 2008; type: cell-based, human
Description: as §1
(§5) Table 2 reported the IC50 values of the complexes against two types of ovarian cancer cells, one sensitive (2008) and one resistant to cisplatin (C13*). […] The resistance factor (R.F., the ratio among IC50 values obtained in resistant C13*cells and those calculated in the sensitive 2008 ones) calculated for all tested complexes resulted to be ≤2 (R.F. for cisplatin 11.1), strongly confirming the ability of the complexes to bypass cisplatin resistance.
as §2, §3, §4

[6] = tested on: six different cancer cell lines; test: MTT cytotoxicity, average over the cancer cell line panel; type: cell-based, human; conditions: for cytotoxic activity of ligands (in words): compared with the complexes
Description: as §1
Due to note, all the complexes were very effective in the MDA-MB-231 cell line, which overexpress the SMVT (sodium-dependent multivitamin transporter) receptor, which is well known to be involved in the intracellular translocation of biotin [24].
as §4

[7] = tested on: MDA-MB-231 (breast) cancer cells; test: MTT cytotoxicity test, 72 h, MDA-MB-231; type: cell-based, human
Description: as §1, §2, §3, §4

[8] = tested on: human pancreatic PSN-1 cancer-cell spheroids; test: 3D spheroid cytotoxicity, APH assay, 72 h; type: cell-based; conditions: 3D spheroids, 72 h, APH test
Description: The cancer spheroids were treated with tested complexes for 72 h, and the cell viability was estimated by means of a modified acid phosphatase (APH) assay.
Spheroid cultures were performed by seeding 2.5 × 10^3 PSN-1 cancer cells/well in spheroid-suitable tissue culture untreated 96-well plates (Greiner Bio-one, Kremsmünster, Austria) in RPMI-1640 cell culture medium without phenol red (Sigma Chemical Co., St. Louis, MO, USA) containing 10% fetal calf serum and supplemented with 20% methyl cellulose stock solution.
An established APH-modified assay was used to detect the cytotoxicity profile in 3D spheroids, as previously described. IC50 values were calculated using a 4-PL model.

[9] = tested on: noncancerous CHO cells; test: Cytotoxicity against noncancerous CHO cells; type: cell-based; conditions: for IC50: noncancerous cells; for S.I. (selectivity index): average IC50 toward normal cells divided by the average IC50 for the malignant cells
Description: In order to preliminarily assess the possible toxic effect on noncancerous cells, we also evaluated the cytotoxic potential of the newly developed Cu(II) complexes against noncancerous CHO cells (Table 3). For all tested complexes, calculated IC50 values were higher than those obtained (on average) against tumour cells, thus indicating for this class of metal complexes a slightly preferential cytotoxicity against cancer cells, as attested by the calculated selectivity index values (SI = the quotient of the average IC50 toward normal cells divided by the average IC50 for the malignant cells).
as §4

[10] = tested on: C13* ovarian cancer cells (cisplatin-resistant); test: MTT cytotoxicity test, 72 h, cisplatin-resistant C13*; type: cell-based, human; conditions: for R.F. (resistance factor): RF = IC50 resistant (C13*)/IC50 parental cells (2008); for IC50: cisplatin-resistant cells, 72 h, MTT test
Description: as §5, §2, §3, §4

[11] = tested on: DNA; test: Ethidium bromide displacement assay; type: binding; conditions: EtBr displacement
Description: A number of research studies were performed on the elucidation of the mechanism of action of copper complexes in the past three decades. Despite several different molecular targets having been proposed for copper(II) complexes, DNA still represents one of the most substantiated when considering diamine ligands. On this basis, we thought it of interest to evaluate the ability of tested complexes to interact with DNA, both at molecular and cellular levels. An ethidium bromide (EB) displacement assay was used to understand if the complexes interact with the DNA at a molecular level. […] These values are very much in line with what was previously seen by us and also very close to the reported literature values of 2.60 × 10^7 M(bp^−1) and 3.04 × 10^7 M(bp^−1) for the bis complexes of [Cu(phen)2]^2+ and [Cu(DPQ)2]^2+ reported by Molphy et al.. […] It is largely possible that the presence of the 1,10-phenanthroline scaffold on compounds 3 and 4 is contributing to the increased displacement of the EtBr (probably by intercalation) and leading to a more noticeable decrease in the fluorescence.
EtBr displacement assays were performed in 10 mM phosphate buffer solution (pH 7.4) as described by Boger et al. The binding values were calculated using the % relative decrease of fluorescence at 50% and the equation below. (1) EEBEtBr/compound50%FI

[12] = tested on: DNA; design: method as in earlier work; conditions: reported literature values; ref 26 (Molphy et al.); cited from earlier work
[13] = tested on: MDA-MB-231 cells; conditions: 24 h, 2 and 3 μM
Description: The ability to enter cancer cells is a very important factor to determine the biological activity of metal-based compounds. Consequently, with the aim of correlating the antiproliferative activity elicited by all the newly developed complexes and their accumulation profiles into cancer cells, the Cu content was evaluated in the SMVT overexpressing MDA-MB-231 cells. Uptake profiles were determined by treating cancer cells for 24 h with two concentrations (2 and 3 μM) of tested complexes.
MDA-MB-231 cells (2.5 × 10^6) were seeded in 75 cm^2 flasks in a growth medium (20 mL). Following 24 h, cells were treated for 24 h with tested complexes and samples processed as previously described.
Figure 2 Cellular uptake of complexes 1–4 in drug-treated MDA-MB-231 human breast cancer cells. Cells were incubated for 24 h with […] of tested complexes. The amount of cellular Cu was estimated by GF-AAS. Error bars are S.D.

[14] = Homo sapiens, Table 1, mean ± S.D.
[15] = Table 2, cisplatin-sensitive parental cells

| Compound | IC50 ([1]; mean ± S.D.) | IC50 ([2]; mean ± S.D.) | IC50 ([3]; mean ± S.D.) | IC50 [4] | IC50 ([5]; Table 1, mean ± S.D.) | IC50 [5, 15] | IC50 [9] | IC50 ([7]; mean ± S.D.) | R.F. (resistance factor) [10] | IC50 [10] | other results |
| --- | --- | --- | --- | --- | --- | --- | --- | --- | --- | --- | --- |
| O=C(CCCC[C@@H]1SC[C@@H]2NC(=O)N[C@@H]21)NN=C1c2cccnc2-c2ncccc21 [A, Biotin-Dafone] | – | – | – | – | – | – | – | – | – | – | IC50 ([1]; Homo sapiens, A-431, mean ± S.D.): > 50 µM; IC50 ([2]; Homo sapiens, HCT-15, mean ± S.D.): > 50 µM; IC50 ([3]; Homo sapiens, PSN1, mean ± S.D.): > 50 µM; IC50 ([4]; Homo sapiens): > 50 µM; IC50 [5, 14]: > 50 µM; cytotoxic activity of ligands (in words) [6]: did not show activity comparable to the complexes; IC50 ([7]; Homo sapiens, MDA-MB-231, mean ± S.D.): > 50 µM |
| O=C(CCCC[C@@H]1SC[C@@H]2NC(=O)N[C@@H]21)N/N=C1\C(=O)c2cccnc2-c2ncccc21 [B, Biotin-Phen] | – | – | – | – | – | – | – | – | – | – | IC50 ([4]; Homo sapiens): 28.1 ± 2.77 µM; IC50 [5, 14]: 21.5 ± 0.72 µM; cytotoxic activity of ligands (in words) [6]: did not show activity comparable to the complexes |
| N.N.[Cl][Pt][Cl] [Cisplatin, cisplatin, reference compound] | 2.1 ± 0.9 µM | 13.9 ± 1.7 µM | 12.1 ± 2.9 µM | 2.1 ± 0.9 µM | 2.2 ± 1.4 µM | 2.2 ± 1.4 µM | 24.1 ± 3 µM | 30.5 ± 2.6 µM | 11.1 | 24.1 ± 3 µM | IC50 [8]: 52.6 ± 3.8 µM |
| O=C(CCCC[C@@H]1SC[C@@H]2NC(=O)N[C@@H]21)NN=C1c2ccc[n+]3c2-c2c1ccc[n+]2[Cu-2]3([Cl])[Cl] [Complex 1, [Cu(dafone-biotin)Cl2]] | 7.2 ± 0.6 µM | 0.4 ± 0.1 µM | 0.6 ± 0.2 µM | 5.9 ± 0.5 µM | 4.5 ± 0.6 µM | 4.5 ± 0.6 µM | 13.1 ± 0.9 µM | 2.1 ± 0.4 µM | 0.4 | 2 ± 0.8 µM | fluorescence quenching (in words) [11]: very small quenching; IC50 ([6]; 2D assays, average over the cancer cell lines of Table 1): 3.4 µM; S.I. (selectivity index) [9]: 3.9 |
| c1cc2c3nccnc3c3ccc[n+]4c3c2[n+](c1)[Cu-2]41[n+]2cccc3c4nccnc4c4ccc[n+]1c4c32 [[Cu(DPQ)2]^2+] | – | – | – | – | – | – | – | – | – | – | binding constant (literature) [12]: 3.04 × 10^7 M(bp^−1) |
| [Cu+2].c1cnc2c(c1)ccc1cccnc12.c1cnc2c(c1)ccc1cccnc12 [[Cu(phen)2]^2+, copper bis-phenanthroline [Cu(phen)2]^2+] | – | – | – | – | – | – | – | – | – | – | binding constant (literature) [12]: 2.60 × 10^7 M(bp^−1) |
| [Cu(phen)(dafone-biotin)](NO3)2 [Complex 3] | 0.9 ± 0.2 µM | 1.8 ± 0.2 µM | 0.7 ± 0.2 µM | 3 ± 0.3 µM | 3.3 ± 0.1 µM | 3.3 ± 0.1 µM | 2.1 ± 0.8 µM | 1.4 ± 0.4 µM | 0.7 | 2.5 ± 0.2 µM | fluorescence quenching (in words) [11]: highest quenching values; relative fluorescence decrease [11]: greater than 50%; binding constant ([11]; 10 mM phosphate buffer pH 7.4, from 50% fluorescence decrease): 2.53 × 10^7 M(bp^−1); S.I. (selectivity index) [9]: 1.1; Cu intracellular content (uptake) [13]: most internalised into cancer cells |
